Results taken from patent US7691890B2, “Anti-viral uses of leflunomide products” (priority 1998, dated 2010).
Like-named read-outs stand apart in the source and are kept apart here.

Tests used:
[1] = cited from earlier work
Influenza A (H3N2) [2] = test: CPE inhibition test; assay type: cell-based; details: for CPE Inhibition test SI: Influenza A (H3N2), IC50 divided by EC50; for EC50: Influenza A virus, H3N2, MDCK, read-out: CPE Inhibition test EC50
Influenza A (H3N2) [3] = test: Neutral red uptake test; details: IC50 divided by EC50
Rhinovirus Type 5 [4] = assay type: cell-based; details: IC50 divided by EC50
[5] = test system: Parainfluenza Type 3 Virus; test: organism not typed; assay type: cell-based, parainfluenza type 3 virus (14702); details: for CPE Inhibition test SI: IC50 divided by EC50
hepatitis B virus (HBV) = test: microbe, parasite or virus in culture; assay type: cell-based; details: for EC50 / EC90: Hepatitis B virus, 216 h; for EC90: HBV DNA, 9 day treatment
Influenza B [6] = test: Neutral red uptake test; details: IC50 divided by EC50
Influenza B [7] = test: CPE inhibition test; assay type: cell-based; details: for EC50: Influenza B virus, MDCK, read-out: CPE Inhibition test EC50; for CPE Inhibition test SI: Influenza B, IC50 divided by EC50
Adenovirus Type 1 [8] = test: Neutral red uptake test; assay type: cell-based, Adenovirus type 1 (65089/Chicago); details: IC50 divided by EC50
Rhinovirus Type 5 [9] = test: Neutral red uptake test; assay type: cell-based; details: IC50 divided by EC50
[10] = test system: Respiratory Syncytial Virus A; test: microbe, parasite or virus in culture; assay type: cell-based, Respiratory syncytial virus (RSV) (A2); details: for Neutral Red Uptake test SI: IC50 divided by EC50
[11] = test system: Respiratory Syncytial Virus A; test: microbe, parasite or virus in culture; assay type: cell-based, Respiratory syncytial virus (RSV) (A2); details: for CPE Inhibition test SI: IC50 divided by EC50
Measles Virus [12] = test: microbe, parasite or virus in culture; assay type: cell-based, Measles virus (Chicago strain); details: for CPE Inhibition test SI: IC50 divided by EC50
Adenovirus Type 1 [13] = test: CPE inhibition test; assay type: cell-based, Adenovirus type 1 (65089/Chicago); details: IC50 divided by EC50
Measles Virus [14] = test: microbe, parasite or virus in culture; assay type: cell-based, Measles virus (Chicago strain); details: for Neutral Red Uptake test SI: IC50 divided by EC50
[15] = test system: Parainfluenza Type 3 Virus; test: organism not typed; assay type: cell-based, parainfluenza type 3 virus (14702); details: for Neutral Red Uptake test SI: IC50 divided by EC50
Influenza A (H1N1) [16] = test: Neutral red uptake test; details: IC50 divided by EC50
[17] = Toxicity to 2.2.15 cells by neutral red dye uptake; assay type: cell-based; details: human, 2.2.15 human liver cells
Protocol: Toxicity of test compounds to cultures of 2.2.15 cells was also determined as follows. Four concentrations of each compound were assayed and compared to untreated control cultures. Toxicity was determined by the uptake of neutral red dye, as determined by absorbance at 510 nm relative to untreated cells.

Influenza A (H1N1) [18] = test: CPE inhibition test; assay type: cell-based; details: for CPE Inhibition test SI: Influenza A (H1N1), IC50 divided by EC50; for EC50: Influenza A virus, H1N1, MDCK, read-out: CPE Inhibition test EC50
CMV DNA = test: Dot blot quantitation of viral DNA in CMV-infected cells; assay type: cell-based; details: CMV P8-infected HFF, 48 hours, 100 μM A771726 or 1 mM PFA; identical results in HUVEC (200 μM)
Protocol: All experiments included infected cultures incubated in the presence of 1 mM PFA as well as uninfected controls. 48 hours post-inoculation cells were harvested by trypsin digestion, washed in PBS, and incubated for 12 hours at 50° C. in 0.1 mg/ml proteinase K (Sigma) in digestion buffer (100 mM NaCl, 10 mM Tris-HCl, 25 mM EDTA, 0.5% SDS). DNA was extracted in phenol/chloroform, precipitated with ammonium acetate/ethanol, and resuspended in TE buffer. Following equalization of concentrations, extracted DNA was serially diluted in 96-well microtiter plates and 0.4 M NaOH/10 mM EDTA was added to each well. DNA was denatured in sealed plates by heating for 10 minutes in a 100° C. waterbath, transferred to nylon membranes (Hybond N, Amersham) using a vacuum dotblot manifold (Bio-Rad Laboratories, Hercules, Calif.), and immobilized by UV cross-linking. The cDNA probe was generated by HindIII digest of cosmid pCM 1015 (Fleckenstein et al., Gene, 18:39, 1982) which contains ˜45 kb of the UL region of the CMV AD169 genome. The probe was α-[^32P]dCTP-labelled by random priming. Unincorporated isotope was removed from labelled probe using a G-50 spin column (Worthington Biochemicals). Membranes were hybridized, washed, and bound probe was detected by autoradiography.

CMV DNA polymerase = assay type: biochemical; details: extracts of VHL/E-infected HUVEC or P8-infected HFF, various concentrations
[19] = test system: CMV pp65, 72 kD IE1, glycoprotein B (gB); test: Immunohistochemical staining of CMV proteins in infected HUVEC; assay type: cell-based; details: CMV VHL/E, 200 μM A771726 or 1 mM PFA
Protocol: Slides were incubated in the presence of absence of the agents for various intervals, acetone-fixed, and stained by the immunoperoxidase method.

[20] = test system: rat CMV (RCMV RA67, Maastricht strain); test: Rat CMV infection of immunodeficient nude rats, tissue plaque assay; assay type: in vivo; details: RCMV i.p., leflunomide 15 mg/kg/day for 14 days, 14 days post-inoculation
[21] = in vivo; cited from earlier work

Nc1ccn(C[C@@H](CO)OCP(=O)(O)O)c(=O)n1 [Cidofovir]
neutropenia ([1]; in vivo): approximately 10 % of recipients

Cc1nocc1C(=O)Nc1ccc(C(F)(F)F)cc1 [Compound 99-126, N-(4-trifluoromethylphenyl)-3-methylisoxazol-4-carboxamide]
CPE Inhibition test SI (Influenza A (H3N2) [2]): 0
EC50 (Influenza A (H3N2) [2]): > 200 µM
Neutral Red Uptake test SI (Influenza A (H3N2) [3]): 1.0
CPE Inhibition test SI (Rhinovirus Type 5 [4]): 1
CPE Inhibition test SI [5]: 0
EC50 (hepatitis B virus (HBV)): > 100 µM
EC90 (hepatitis B virus (HBV); 2.2.15 cells): > 100 µM
anti-viral effect on HBV (in words) (hepatitis B virus (HBV); summary of Table 2): some anti-viral effect
Neutral Red Uptake test SI (Influenza B [6]): 1.0
EC50 (Influenza B [7]): 60 µM
CPE Inhibition test SI (Influenza B [7]): 1.2
Neutral Red Uptake test SI (Adenovirus Type 1 [8]): 0
Neutral Red Uptake test SI (Rhinovirus Type 5 [9]): 0
Neutral Red Uptake test SI [10]: 0
CPE Inhibition test SI [11]: 0
CPE Inhibition test SI (Measles Virus [12]): 6
CPE Inhibition test SI (Adenovirus Type 1 [13]): 0
Neutral Red Uptake test SI (Measles Virus [14]): 2
Neutral Red Uptake test SI [15]: 1
Neutral Red Uptake test SI (Influenza A (H1N1) [16]): 1.0
CC50 [17]: 110 µM
CPE Inhibition test SI (Influenza A (H1N1) [18]): <3.2
EC50 (Influenza A (H1N1) [18]): > 20 µM

Cc1oncc1C(=O)Nc1cccc(C(F)(F)F)c1 [Compound 99-127, N-(3-trifluoromethylphenyl)-5-methylisoxazol-4-carboxamide]
CPE Inhibition test SI (Influenza A (H3N2) [2]): 0
EC50 (Influenza A (H3N2) [2]): > 200 µM
Neutral Red Uptake test SI (Influenza A (H3N2) [3]): 1.0
CPE Inhibition test SI [5]: 0
SI (hepatitis B virus (HBV); HBV, 2.2.15 cells): 0.7
EC50 (hepatitis B virus (HBV)): 11 µM
EC90 (hepatitis B virus (HBV); 2.2.15 cells): 96 µM
Neutral Red Uptake test SI (Influenza B [6]): 1.1
EC50 (Influenza B [7]): > 200 µM
CPE Inhibition test SI (Influenza B [7]): 0
Neutral Red Uptake test SI [10]: 0
CPE Inhibition test SI [11]: 0
CPE Inhibition test SI (Measles Virus [12]): 0
Neutral Red Uptake test SI (Measles Virus [14]): 0
Neutral Red Uptake test SI [15]: 0
Neutral Red Uptake test SI (Influenza A (H1N1) [16]): 1.0
CC50 [17]: 67 µM
CPE Inhibition test SI (Influenza A (H1N1) [18]): 0
EC50 (Influenza A (H1N1) [18]): > 200 µM

Nc1ncnc2c1ncn2C[C@@H](CO)OCP(=O)(O)O [HPMPA, reference compound]
Neutral Red Uptake test SI (Adenovirus Type 1 [8]): >20
CPE Inhibition test SI (Adenovirus Type 1 [13]): 8

O=C([O-])P(=O)(O)O.[Na+] [PFA, sodium phosphonoformate]
quantity of viral DNA synthesized (CMV DNA): no detectable CMV DNA
frequency of each toxicity (renal dysfunction, hypomagnesemia, hypokalemia, hypocalcemia, seizures, fever, rash) ([1]; intravenous foscarnet): more than 5% of recipients
CMV DNA polymerase activity (CMV DNA polymerase): complete inhibition at 1 mM
expression of CMV pp65 and IE1 ([19]; 24-48 hr pi): unimpeded
expression of CMV late structural glycoprotein B (gB) ([19]; 96 hours pi): unable to express gB

Cc1oncc1C(=O)Nc1ccc(C(F)(F)F)cc1 [leflunomide, N-(4-trifluoromethylphenyl)-5-methylisoxazol-4-carboxamide]
viral load in salivary glands, lungs and spleens [20]: significantly reduced viral load
toxicity in animal studies [21]: liver and cardiac toxicity

NC(=O)c1ncn([C@@H]2O[C@H](CO)[C@@H](O)[C@H]2O)n1 [ribavirin, reference compound]
EC50 ([5]; MA104, MA-104 cells, read-out: CPE Inhibition test EC50): 230 µM
EC50 ([10]; human respiratory syncytial virus, MA104, MA-104 cells, read-out: Neutral Red Uptake test EC50): 82 µM
EC50 ([11]; human respiratory syncytial virus, MA104, MA-104 cells, read-out: CPE Inhibition test EC50): 290 µM
EC50 (Measles Virus [12]; Measles morbillivirus, CV-1 cells, read-out: CPE Inhibition test EC50): 41 µM
EC50 (Measles Virus [14]; Measles morbillivirus, CV-1 cells, read-out: Neutral Red Uptake test EC50): 41 µM
EC50 ([15]; MA104, MA-104 cells, read-out: Neutral Red Uptake test EC50): 120 µM

O=c1ccn([C@@H]2O[C@H](CO)[C@@H](O)[C@H]2O)c(=O)[nH]1 [uridine]
EC50 (hepatitis B virus (HBV)): > 100 µM
EC90 (hepatitis B virus (HBV); 2.2.15 cells): > 100 µM
CC50 [17]: > 100 µM
